# Data taken from patent US9434711B2 (Janssen Pharmaceutica, NV, priority 2007, dated 2016).
# Target: canine TRPM8 (Canis lupus familiaris, UniProt Q1A7N1)
# Experiment: In Vitro Canine TRPM8 Functional Assay (Ca2+ fluorescence, icilin activation)
# Type: cell-based
# Conditions: for IC50: HEK293 cells stably expressing canine TRPM8, icilin activation, eight-point dose-response, read-out: IC50; for inhibition at 0.2 µM: read-out: % Inh @ 0.2
# Method in brief: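 Readout is the intracellular Ca2+ fluorescence change, measured by FLIPR or FDSS, in HEK293 cells stably expressing canine TRPM8. Potency (EC50 or IC50) is fitted from eight concentrations averaged over quadruplicate wells.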
# [1] = compound at 0.2 μM, canine TRPM8, icilin activation
# canine TRPM8, sequence (Q1A7N1 1-1104): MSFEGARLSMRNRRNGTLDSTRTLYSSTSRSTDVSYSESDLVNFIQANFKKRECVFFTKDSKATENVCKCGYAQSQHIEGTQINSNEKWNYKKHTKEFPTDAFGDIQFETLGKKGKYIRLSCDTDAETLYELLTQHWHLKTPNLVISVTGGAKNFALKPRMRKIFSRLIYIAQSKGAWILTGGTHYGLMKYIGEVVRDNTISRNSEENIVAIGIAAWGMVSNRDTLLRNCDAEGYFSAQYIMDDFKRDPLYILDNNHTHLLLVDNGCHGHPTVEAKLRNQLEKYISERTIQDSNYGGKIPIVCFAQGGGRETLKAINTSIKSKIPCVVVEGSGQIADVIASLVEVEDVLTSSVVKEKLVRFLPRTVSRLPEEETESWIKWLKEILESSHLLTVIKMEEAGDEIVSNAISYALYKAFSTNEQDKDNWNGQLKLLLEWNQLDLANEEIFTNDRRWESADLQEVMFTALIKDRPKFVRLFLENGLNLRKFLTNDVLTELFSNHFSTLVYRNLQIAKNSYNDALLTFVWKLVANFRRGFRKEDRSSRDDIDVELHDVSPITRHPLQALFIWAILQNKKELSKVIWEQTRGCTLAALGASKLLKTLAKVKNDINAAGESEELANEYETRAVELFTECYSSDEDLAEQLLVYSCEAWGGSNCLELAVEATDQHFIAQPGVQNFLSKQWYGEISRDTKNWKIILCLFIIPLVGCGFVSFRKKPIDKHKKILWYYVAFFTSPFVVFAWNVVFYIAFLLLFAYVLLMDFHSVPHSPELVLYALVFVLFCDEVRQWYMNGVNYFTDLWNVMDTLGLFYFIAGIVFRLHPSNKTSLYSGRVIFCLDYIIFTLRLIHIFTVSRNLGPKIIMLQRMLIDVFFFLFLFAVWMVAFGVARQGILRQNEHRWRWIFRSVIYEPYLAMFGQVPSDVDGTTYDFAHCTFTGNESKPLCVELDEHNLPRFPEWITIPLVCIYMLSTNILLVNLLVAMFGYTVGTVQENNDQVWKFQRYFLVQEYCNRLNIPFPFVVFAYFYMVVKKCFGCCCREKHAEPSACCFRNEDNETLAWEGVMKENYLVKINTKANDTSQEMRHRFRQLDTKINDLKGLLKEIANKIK
Structure (SMILES),IC50 [nM],inhibition at 0.2 µM [1] [%],% Inh @ 0.2 (μM) [1] [%]
"Cc1c(N(Cc2ccc(OC(F)(F)F)cc2)S(=O)(=O)c2ccc(-n3ccnc3CN(C)C)cc2)sc2ccccc12 [Compound 701, 4-(2-Dimethylaminomethyl-imidazol-1-yl)-N-(3-methyl-benzo[b]thiophen-2-yl)-N-(4-trifluoromethoxy-benzyl)-benzenesulfonamide]",32.5,95,
"O=S(=O)(CC(F)(F)F)N(Cc1ccc(F)c(C(F)(F)F)c1)c1sc2ccccc2c1Br [Compound 702, N-(3-Bromo-benzo[b]thiophen-2-yl)-N-(4-fluoro-3-trifluoromethyl-benzyl)-2,2,2-trifluoro-ethanesulfonamide]",23,99,
"O=S(=O)(CC(F)(F)F)N(Cc1ccc(F)c(C(F)(F)F)c1)c1sc2ccccc2c1Cl [Compound 703, N-(3-Chloro-benzo[b]thiophen-2-yl)-N-(4-fluoro-3-trifluoromethyl-benzyl)-2,2,2-trifluoro-ethanesulfonamide]",51,80,
"O=S(=O)(CC(F)(F)F)N(Cc1ccc(F)c(C(F)(F)F)c1)c1sc2ccccc2c1CO [Compound 704, N-(3-Hydroxymethyl-benzo[b]thiophen-2-yl)-N-(4-fluoro-3-trifluoromethyl-benzyl)-2,2,2-trifluoro-ethanesulfonamide]",,102,
"CNS(=O)(=O)N(Cc1ccc(F)c(C(F)(F)F)c1)c1sc2ccccc2c1Br [Compound 705, N-(3-Bromo-benzo[b]thiophen-2-yl)-N-(4-fluoro-3-trifluoromethyl-benzyl)-N′-methyl-sulfamide]",19,101,
"O=c1[nH]c(-c2ccc(S(=O)(=O)N(CCC3CC3)c3sc4ccccc4c3Br)cc2)ns1 [Compound 706, N-(3-Bromo-benzo[b]thiophen-2-yl)-N-(cyclopropyl-ethyl)-4-(5-oxo-4,5-dihydro-[1,2,4]thiadiazol-3-yl)-benzenesulfonamide]",14,102,
"O=C(O)c1ccc(S(=O)(=O)N(CCCCC(F)(F)F)c2sc3ccccc3c2Br)c(F)c1 [Compound 707, N-(3-Bromo-benzo[b]thiophen-2-yl)-N-(5,5,5-trifluoro-pentyl)-2-fluoro-4-carboxy-benzenesulfonamide]",3,102,
"O=c1[nH]c(-c2ccc(S(=O)(=O)N(CCC(F)(F)F)c3sc4ccccc4c3Br)cc2)ns1 [Compound 708, N-(3-Bromo-benzo[b]thiophen-2-yl)-N-(3,3,3-trifluoro-propyl)-4-(5-oxo-4,5-dihydro-[1,2,4]thiadiazol-3-yl)-benzenesulfonamide]",13,102,
"O=C(O)c1ccc(S(=O)(=O)N(CCC2CC2)c2sc3ccccc3c2Br)c(F)c1 [Compound 709, N-(3-Bromo-benzo[b]thiophen-2-yl)-N-(2-cyclopropyl-ethyl)-2-fluoro-4-carboxy-benzenesulfonamide]",6,102,
"O=C(O)c1ccc(S(=O)(=O)N(CCC(F)(F)F)c2sc3ccccc3c2Br)c(F)c1 [Compound 710, N-(3-Bromo-benzo[b]thiophen-2-yl)-N-(3,3,3-trifluoro-propyl)-2-fluoro-4-carboxy-benzenesulfonamide]",7,102,
"O=C(O)c1ccc(S(=O)(=O)N(Cc2ccc(F)c(C(F)(F)F)c2)c2sc3ccccc3c2Br)c(F)c1 [Compound 711, N-(3-Bromo-benzo[b]thiophen-2-yl)-N-(4-fluoro-3-trifluoromethyl-benzyl)-2-fluoro-4-carboxy-benzenesulfonamide]",2,102,
"O=c1[nH]c(-c2ccc(S(=O)(=O)N(CCCCC(F)(F)F)c3sc4ccccc4c3Br)cc2)ns1 [Compound 712, N-(3-Bromo-benzo[b]thiophen-2-yl)-N-(5,5,5-trifluoro-pentyl)-4-(5-oxo-4,5-dihydro-[1,2,4]thiadiazol-3-yl)-benzenesulfonamide]",4,102,
"CS(=O)(=O)Nc1cccc(S(=O)(=O)N(CCC(F)(F)F)c2cc3ccccc3s2)c1 [Compound 713, N-(Benzo[b]thiophen-2-yl)-3-methanesulfonylamino-N-(3,3,3-trifluoro-propyl)-benzenesulfonamide]",,47,
"CS(=O)(=O)Nc1cccc(S(=O)(=O)N(CCC(F)(F)F)c2sc3ccccc3c2Cl)c1 [Compound 714, N-(3-Chloro-benzo[b]thiophen-2-yl)-3-methanesulfonylamino-N-(3,3,3-trifluoro-propyl)-benzenesulfonamide]",29,96,
"CS(=O)(=O)Nc1cccc(S(=O)(=O)N(CCC(F)(F)F)c2sc3ccccc3c2Br)c1 [Compound 715, N-(3-Bromo-benzo[b]thiophen-2-yl)-3-methanesulfonylamino-N-(3,3,3-trifluoro-propyl)-benzenesulfonamide]",24,101,
"CS(=O)(=O)Nc1ccc(S(=O)(=O)N(CCC2CC2)c2sc3ccccc3c2Cl)cc1 [Compound 716, N-(3-Chloro-benzo[b]thiophen-2-yl)-N-(2-cyclopropyl-ethyl)-4-methanesulfonylamino-benzenesulfonamide]",9,101,
"Cc1c(N(CCCCC(F)(F)F)S(=O)(=O)c2nc3ccccc3[nH]2)sc2ccccc12 [Compound 720, N-(3-Methyl-benzo[b]thiophen-2-yl)-N-(5,5,5-trifluoro-pentyl)-1H-benzimidazole-2-sulfonamide]",,52,
"Cc1c(N(CCCCC(F)(F)F)S(=O)(=O)c2nc3ccccc3[nH]2)sc2ccccc12 [Compound 727, N-(3-Methyl-benzo[b]thiophen-2-yl)-N-(5,5,5,-trifluoro-pentyl)-1H-benzimidazole-2-sulfonamide]",,,16

# Second part, led by results:
IC50 [nM],inhibition at 0.2 µM [1] [%],Structure (SMILES),% Inh @ 0.2 (μM) [1] [%]
5,102,"CS(=O)(=O)Nc1ccc(S(=O)(=O)N(CCC2CC2)c2sc3ccccc3c2Br)cc1 [Compound 717, N-(3-Bromo-benzo[b]thiophen-2-yl)-N-(2-cyclopropyl-ethyl)-4-methanesulfonylamino-benzenesulfonamide]",
39,96,"O=S(=O)(Nc1ccc(S(=O)(=O)N(CCC2CC2)c2sc3ccccc3c2Cl)cc1)C1CC1 [Compound 718, N-(3-Chloro-benzo[b]thiophen-2-yl)-4-cyclopropanesulfonylamino-N-(2-cyclopropyl-ethyl)-benzenesulfonamide]",
23,100,"O=S(=O)(Nc1ccc(S(=O)(=O)N(CCC2CC2)c2sc3ccccc3c2Br)cc1)C1CC1 [Compound 719, N-(3-Bromo-benzo[b]thiophen-2-yl)-4-cyclopropanesulfonylamino-N-(2-cyclopropyl-ethyl)-benzenesulfonamide]",
4.2,102,"Cc1c(N(CCCCC(F)(F)F)S(=O)(=O)c2cccc3nccnc23)sc2ccccc12 [Compound 721, N-(3-Methyl-benzo[b]thiophen-2-yl)-N-(5,5,5-trifluoro-pentyl)-quinoxalin-5-yl-sulfonamide]",
,28,"Cc1c(N(Cc2ccc(F)c(C(F)(F)F)c2)S(=O)(=O)c2nc3ccccc3n2C)sc2ccccc12 [Compound 722, N-(3-Methyl-benzo[b]thiophen-2-yl)-N-(4-fluoro-3-trifluoromethyl-benzyl)-1-methyl-1H-benzimidazole-2-sulfonamide]",
18,102,"Cc1c(N(Cc2ccc(F)c(C(F)(F)F)c2)S(=O)(=O)c2cccc3nccnc23)sc2ccccc12 [Compound 723, N-(3-Methyl-benzo[b]thiophen-2-yl)-N-(4-fluoro-3-trifluoromethyl-benzyl)-quinoxalin-5-yl-sulfonamide]",
5.3,102,"Cc1c(N(Cc2ccc(F)c(C(F)(F)F)c2)S(=O)(=O)CCC=O)sc2ccccc12 [Compound 724, N-(4-Fluoro-3-trifluoromethyl-benzyl)-N-(3-methyl-benzo[b]thiophen-2-yl)-3-oxo-propane-1-sulfonamide]",
7.8,102,"Cc1c(N(Cc2ccc(F)c(C(F)(F)F)c2)S(=O)(=O)CCC(C)(C)O)sc2ccccc12 [Compound 725, N-(4-Fluoro-3-trifluoromethyl-benzyl)-N-(3-methyl-benzo[b]thiophen-2-yl)-3-hydroxy-3-methyl-butane-1-sulfonamide]",
90.3,69,"Cc1c(N(CCC2CC2)S(=O)(=O)c2nc3ccccc3[nH]2)sc2ccccc12 [Compound 726, N-(Cyclopropyl-ethyl)-N-(3-methyl-benzo[b]thiophen-2-yl)-1H-benzimidazole-2-sulfonamide]",
,44,"Cc1c(N(Cc2ccc(F)c(C(F)(F)F)c2)S(=O)(=O)c2nc3ccccc3[nH]2)sc2ccccc12 [Compound 728, N-(3-Methyl-benzo[b]thiophen-2-yl)-N-(4-fluoro-3-trifluoromethyl-benzyl)-1H-benzimidazole-2-sulfonamide]",
,75,"Cc1c(N(Cc2ccc(OC(F)(F)F)cc2)S(=O)(=O)c2nc3ccccc3[nH]2)sc2ccccc12 [Compound 729, N-(3-Methyl-benzo[b]thiophen-2-yl)-N-(4-trifluoromethoxy-benzyl)-1H-benzimidazole-2-sulfonamide]",
23.6,100,"CC(=O)c1c(N(Cc2ccc(F)cc2)S(=O)(=O)c2ccc(Br)cc2)sc2ccccc12 [Compound 730, N-(3-Acetyl-benzo[b]thiophen-2-yl)-4-bromo-N-(4-fluoro-benzyl)benzene-sulfonamide]",
44.4,87,"CC(=O)c1c(N(Cc2ccc(OC(F)(F)F)cc2)S(=O)(=O)c2ccc(Br)cc2)sc2ccccc12 [Compound 731, N-(3-Acetyl-benzo[b]thiophen-2-yl)-4-bromo-N-(4-(trifluoromethoxy)-benzyl)benzenesulfonamide]",
